Assay [1] has as its system E. coli DH10B. To be noted: after 900 min, cited from earlier work.
The subject of assay [2] is calcein loaded phospholipid vesicles (PC, PG, PE-PG mix, E. coli total, E. coli polar). The experiment in a line: Synthetic phospholipid vesicle lysis (calcein leakage) assay. The following applies: SSA 1.5 mM; thirty seconds after SSA addition; five vesicle types; in words. Here is the method: Here, samples of phospholipid vesicles containing the fluorescent dye calcein were prepared. At internal vesicle concentrations, this dye undergoes self-quenching. […] The increase in fluorescence output is proportional to the % of vesicle lysis observed upon the addition of SSAs 1–14, when calibrated against a solution of vesicles know to have undergone 100% lysis, see Fig. 5.
Fig. 5 The average (n = 3) percentage lysis (%) of vesicles (30 μM) composed of five different lipid compositions (Table 2), with an internal calcein concentration of 70 mM at 298 K. The % vesicle lysis was calculated through observation of increasing fluorescence emission (λem = 515 nm), following the addition of SSAs […] (1.5 mM) in a H2O/EtOH 95 : 5 solution after: (a) 30 s and; (b) 15 min. Triton X-100 (1%) was used as a positive control for 100% vesicle lysis. Data normalised to the addition of a H2O/EtOH 95 : 5 solution. Red = PC, yellow = PG, green = PE-PG mix, blue = E. coli total, pink = E. coli polar. Error = standard error.
Section 2: General Methods […]
Preparation of vesicles: All lipids were purchased as powder stocks from Avanti Polar Lipids. Lipid vesicles were prepared according to standard procedures.1 Each phospholipid was dissolved in chloroform (~ 10 mL) and the solvent was removed under reduced pressure. The thin film of dried lipid was further dried in vacuo for at least 2 hours. Lipid films were resuspended in the desired buffer and subjected to 9 freeze-thaw cycles in liquid nitrogen and extruded 20 times through a 200 nm […]
Preparation of calcein loaded vesicles: Lipid films were resuspended in buffer A (70 mM calcein, 10 mM TRIS pH 8.5, 0.5 mM EDTA, 110 mM NaCl, pH adjusted to 6-7) and subjected to 9 freeze-thaw cycles in liquid nitrogen and extruded 20 times through a 200 nm polycarbonate membrane. The suspension was run down a size exclusion column packed with sephadex G-50 using buffer B (10 mM TRIS pH 8.5, 0.5 mM EDTA, 110 mM NaCl). The hydrodynamic dimeter of the lipids was monitored using an Anton Paar LitesizerTM 500 to ensure the separation of free and entrapped calcein.
Phospholipid concentration was adjusted to 30 µM for vesicle leakage experiments.
Vesicle leakage assay: Black bottom 96-well plates were prepared with the appropriate lipid solution (100 µL, 30 µM) and desired SSA solution (100 µL) prepared in H2O/EtOH 95: 5. A solution of 1 % Triton X-100 (16) was used for a 100 % lysis control and a H2O/EtOH 95: 5 solution was used as a 0 % lysis control. Fluorescent measurements were taken at 25 °C using an excitation value of 495 nm and an optimised gain of 983. Data were acquired in endpoint mode. All experiments were repeated in triplicate to ensure experimental reproducibility. […]
Data

In assay [3] the test system is MRSA USA300. As to the kind of experiment: MIC50 determination and initial screening from OD600 growth curves, MRSA USA300. The class given is cell-based, Staphylococcus aureus. The following applies: Staphylococcus aureus, 15 h, Table S3, conversion of the mM values of Table 1; MRSA USA300; after 900 mins. The text has this:
(§1) The antimicrobial activity of SSAs 1–14 was established against both a model Gram-positive, clinically relevant methicillin resistant Staphylococcus aureus (MRSA), and a model Gram-negative, E. coli bacteria, Table 1. Here MIC50 values are given in mM to enable the derivation of molecular structure: antimicrobial efficacy: physical property relationships. […]
(§2) Data were acquired in endpoint mode. […]
(§3) Section 3: Microbial Methods
(§4) These methods were taken directly from UK Health and Security Office (UKHSA) standard operating […]
(§5) Preparation of Luria Broth media (LB): Yeast extract (5 g), tryptone (10 g) and sodium chloride (10 g) were dissolved in dH₂O (1 L) then divided into bottles and autoclaved.
(§6) Preparation of Luria Broth (LB) agar plates: Agar (6 g) was added to LB (400 mL) and autoclaved. Once cool, the LB agar was poured into sterile petri dishes under sterile conditions and allowed to set. LB plates were stored at 4 °C until use.
(§7) Preparation of bacterial plates: Sterile LB agar plates were streaked using Escherichia coli DH10B or USA300 Methicillin-Resistant Staphylococcus aureus then incubated at 37 °C overnight.
(§8) Preparation of Inoculum: An initial culture was made up by inoculating LB media (5 mL) with a single colony of bacteria under sterile conditions and incubated at 37 °C with shaking overnight. The following day, overnight bacterial cultures were subcultured into fresh LB medium to a starting OD600 […]
(§9) Preparation of 96 well microplate for screening: 20 mM solutions of each compound to be tested were made up using 5 % ethanol. The 1:100 cell suspension (150 µL) was pipetted into the wells and SSA compound solutions (30 µL) were added into each well. The final screening concentration for each compound was 3.3 mM in the well. These were incubated for 20 hours in a plate reader, with optical density readings being taken at 600 nm every 15 minutes. Optical density readings were plotted against time to produce growth curves. […]
(§10) individual wells under sterile conditions. Compounds (30 µL) were added to the wells to equal a total volume of 180 µL in the wells. Six repeats of each concentration for each compound were created each plate. The plates were sealed using parafilm, then incubated at 37°C in a microplate reader for 18-25 hours. Optical density readings were taken at 600 nm every 15 min. Data was used to generate […]
(§11) Calculation of MIC50: Growth curves were plotted using OD600 optical density readings in Microsoft ® Excel ® 2013. OD600 optical density readings 900 minutes from the start of each of these growth cultures for each concentration of compound were plotted in Origin ® 2015. The resultant curve was normalized and fitted using the Boltzmann fit to define the MIC50 values for each compound.

Assay [4] concerns E. coli DH10B. As to the kind of experiment: MIC50 determination and initial screening from OD600 growth curves, E. coli DH10B. The class given is cell-based, Escherichia coli. To be noted: Escherichia coli, 15 h; Table S3, conversion of the mM values of Table 1; E. coli DH10B; after 900 mins.
Text: as §1, §2, §3, §4, §5, §6, §7, §8, §9, §10, §11

Assay [5] deals with MRSA USA300. The following applies: n = 3, 0.5 McFarland standard, after 900 min, number in bracket = efficacy rank; cited from earlier work.

What is called MIC50 is the lowest concentration that inhibits either 50% of growth or 50% of the strains tested, depending on the study. A lower MIC50 goes with higher susceptibility.

Molecules are shown by their SMILES. ≈ marks a conversion by molar mass, not a printed value.

`CCCCNC(=S)NCS(=O)(=O)O` [SSA 14]: the “MIC50 E. coli” value in assay [1] (E. coli DH10B, n = 3, 0.5 McFarland standard, number in bracket = efficacy rank) is on record as 6.03(9) mM. Further, the vesicle lysis activity entry in assay [2] was “almost complete loss of any vesicle lysis activity”. Besides, the MIC50 in assay [3] was found to be 1440 µg/mL (≈ 6.34 mM); in assay [4] it was 2820 µg/mL (≈ 12.5 mM). Moreover, in assay [5], the “MIC50 MRSA” value is on record as 3.07(9) mM.

On to `CCCCNC(=O)NCS(=O)(=O)O` [SSA 13], for which the “initial antimicrobial screening, inhibition of growth, E. coli” value in assay [1] (3.3 mM) is “^c (SSA did not pass initial antimicrobial screening, exhibited <10% inhibition of growth at 3.3 mM after 900 min and therefore excluded from further study)”. The vesicle lysis activity result in assay [2] is “almost complete loss of any vesicle lysis activity”. This compound showed an MIC50 in assay [3] of 1990 µg/mL (≈ 9.47 mM). Besides, the “MIC50 MRSA” value in assay [5] is given as 4.41(10) mM.

The values above are taken from paper PMC9400670, “Establishing the selective phospholipid membrane coordination, permeation and lysis properties for a series of ‘druggable’ supramolecular self-associating antimicrobial amphiphiles” (Chemical Science, 2022).
